The nature of series [1]: Dissolution of dried ethanol extract in citric acid / citrate buffer at pH 2.6 to 6.0 (HPLC). The format is physicochemical. Here is the method: (§1) Conophylline and conophyllidine were analyzed by reversed phase HPLC in a high pressure gradient mode using a YMC-Pack Pro C18 RS column (4.6 mm×250 mm; manufactured by YMC Co., Ltd.). The mobile phase consisted of 1% by volume acetic acid as solvent A and acetonitrile as solvent B. The gradient program was set to start with 10% B at a flow rate of 1 ml/min, and the portion of B was increased linearly to 55% over 25 min. The column temperature was 40° C. and UV absorption was monitored at the wavelength of 335 nm. The reference solutions of conophylline and conophyllidine were prepared immediately before measurement and their concentrations were calculated from the absorbance at 335 nm of the solutions prepared.
After some of the dried leaves obtained in Example 1 were pulverized in a mill, 10 g of the pulverized product was extracted with 100 ml of 60% ethanol. Then, the extract was centrifuged and supernatant containing conophylline and conophyllidine was recovered. […] The supernatant was dispensed in 3 ml aliquots into 5 centrifuge tubes and then concentrated to dryness by centrifugation. A buffer (citric acid aqueous solution or sodium citrate buffer) at pH 2.6 to pH 6.0 prepared by appropriately mixing 0.1 M citric acid solution and 0.1 M sodium citrate solution was added at 0.1 ml per tube. After 10 min vigorous stirring, the supernatant was centrifugated again and diluted 10-fold with 50% ethanol. After the dilution, insoluble matter was removed by filtration with a 0.2-μm membrane filter and the contents of conophylline and conophyllidine in the filtrated supernatant were measured by HPLC (Table 2).

A short description of series [2]: Amounts in lysate, acid extract and fractions after neutralization to pH 6.0, centrifugation and ultrafiltration (HPLC). The format is physicochemical. To be noted: for amount in Aqueous extract: clarified 0.1 N hydrochloric acid extract; for amount in Lysate: distilled water, 50° C. 30 min, centrifuged supernatant; for amount in Centrifuged supernatant: extract adjusted to pH 6.0, 1,500×g 5 min; for amount in Centrifuged precipitate: extract adjusted to pH 6.0, precipitate dissolved in equal volume of 50% ethanol; for amount in UF filtrate: pH 6.0, passed ultrafiltration membrane; for amount in UF filtrate / amount in UF debris: cut-off 50,000; for amount in UF debris: pH 6.0, retained on ultrafiltration membrane. Here is the method:
as §1
200 ml of 0.1 N hydrochloric acid was added to 4 g of pulverized product of the dried leaves obtained by the same method as in Example 2, which was then extracted at 50° C. for 30 min. After the debris was removed by paper filtration, the extract was ultrafiltrated with pencil-type module SLP-0053 manufactured by Asahi Kasei Corporation (molecular weight cut-off 10,000) and 165 ml of filtrate was recovered. The pH of the filtrate was adjusted by gradually adding sodium carbonate aqueous solution and the precipitate formed was recovered by centrifugation. The precipitate was then vacuum-evaporated to yield 70 mg of dried product. This dried product contained 9.8 μg of conophylline and 13.3 μg of conophyllidine per mg
The extract was prepared and clarified by removing debris by paper filtration in the same method as in Example 5. Then 100 ml of the clarified extract was adjusted to pH 6.0 with sodium hydroxide aqueous solution. This solution was centrifuged (1,500×g, 5 min) to separate into a supernatant (centrifuged supernatant) and precipitate (centrifuged precipitate). Next, the precipitate was dissolved in an equal volume of 50% ethanol, and the amounts of the active ingredients (conophylline and conophyllidine) in the clarified extract, the centrifuged supernatant, and the centrifuged precipitate were measured by HPLC. Further, the amounts of the active ingredient in the supernatant (lysate) obtained by adding 200 ml of distilled water to 4 g of the pulverized product of the dried leaves of Tabernaemontana divaricata and heating at 50° C. for 30 min, followed by centrifugation at 1,500×g for 5 min were also measured by HPLC.
Further, a sodium hydroxide aqueous solution was added to 1 ml of the above-described clarified extract to adjust pH to 6.0. This extract was treated with an ultrafiltration membrane USY-5 (molecular weight cut-off: 50,000), manufactured by Advantech Co., Ltd. and the filtrate which had passed through the membrane was recovered (UF filtrate). At the same time, the remaining component on the membrane was dissolved and recovered using 1 ml of 50% ethanol (UF debris), and the amounts of the active ingredients in the UF filtrate and UF debris were measured by HPLC (Table 5). As a result, no amount of conophylline or conophyllidine was not detected in the filtrate at all; almost all was present in the fraction which had not permeated through the ultrafiltration membrane.

For a further series, the system named is pancreatic β cells. As to conditions: cited from earlier work.
Series [3] in a line: Blood concentrations after oral administration of acetic acid extract or dried pulverized leaves to healthy rats. The format is in vivo, rat. Here is the method: Dried leaves of Tabernaemontana divaricata were pulverized with a home mill, 1 g of the pulverized product was homogenized in 20 ml of 0.3 M acetic acid solution, and the active ingredient was extracted by stirring at 50° C. for 30 min. The supernatant was recovered by centrifugation and concentrated to dryness to obtain 0.3 g of powder (acetic acid extract). This powder contained conophylline and conophyllidine at 1.0 mg/g and 0.8 mg/g, respectively.
Further, 1 g of pulverized leaves was homogenized in 20 ml of distilled water and then concentrated to dryness to obtain 1 g of product (dried pulverized leaves). The amounts of the active ingredients of conophylline and conophyllidine were 0.40 mg/g and 0.35 mg/g, respectively.
Next, 0.2 g of the acetic acid extract and 0.5 g of the dried pulverized leaves were separately suspended in 5 ml of water for injection. These suspensions were administered to 5-week old healthy rats (Crj:CD (SD) IGS, SPF, male) using a sonde by forced oral administration at a dose of 5 ml/kg body weight (n=2 per suspension). Blood was taken from the orbital venous plexus of each rat before oral administration, 1.5, 3, 6, 12, and 24 hours post administration and serum was recovered by centrifugation. The concentrations of conophylline and conophyllidine in the blood were measured by precipitating protein by addition of 2 volumes of acetonitrile to the serum followed by HPLC analysis of the supernatant (Table 6).

The structures appear in SMILES notation.

As to `CC[C@@]12C=CCN3CC[C@]4(C(=C(C(=O)OC)C1)Nc1cc5c(cc14)[C@H]1[C@@H](O5)[C@H](O)[C@]4(CC)CC(C(=O)OC)=C5Nc6c(cc(O)c(OC)c6OC)[C@@]56CCN1[C@H]46)[C@H]32` (stereo in doubt) [Conophyllidine, conophyllidine], the “content dissolved in supernatant” value in series [1] (Citrate buffer solution, pH 3) came out at 0.612 mg/mL; in series [1] (Citrate buffer solution, pH 4), 0.055 mg/mL; in series [1] (Citrate buffer solution, pH 5), 0.0017 mg/mL; in series [1] (Citrate buffer solution, pH 6), 0.0010 mg/mL; in series [1] (Citric acid, pH 2.6), 0.786 mg/mL. For the same compound, the “amount in Aqueous extract” value in series [2] came to 2.01 µg/mL. The “amount in Lysate” value in series [2] turned out to be 0.02 µg/mL. In series [2], the “amount in Centrifuged supernatant” value stood at 1.41 µg/mL. In series [2], the “amount in Centrifuged precipitate” value was found to be 0.30 µg/mL. The “amount in UF filtrate” value in series [2] is 0.00 µg/mL. For the same compound, the “amount in UF debris” value in series [2] came out at 2.19 µg/mL. In addition, in the series on pancreatic β cells, the “regeneration of pancreatic β cells” value is reported as “activate regeneration of pancreatic β cells”. Also, the blood concentration worked out at 54 ng/mL in series [3] (Dried pulverized leaves oral, healthy rats (animals 3, 4), 6 h); 13 ng/mL in series [3] (Dried pulverized leaves oral, healthy rats (animals 3, 4), 12 h); 2 ng/mL in series [3] (Dried pulverized leaves oral, healthy rats (animals 3, 4), 24 h). Also, in series [3] (acetic acid extract oral, rats), the “time at which blood concentration reached its maximum” value is 1.5 h. Further, in series [3] (male, Crj:CD (SD) IGS, rat, in vivo, po, 0.5 g/kg, Dried pulverized leaves oral, healthy rats (animals 3, 4), 6 h), the concentration at 6 h worked out at 28 ng/mL. The concentration at 12 h in series [3] (male, Crj:CD (SD) IGS, rat, in vivo, po, 0.5 g/kg, Dried pulverized leaves oral, healthy rats (animals 3, 4), 12 h) is 8 ng/mL. Further, the concentration at 24 h in series [3] (male, Crj:CD (SD) IGS, rat, in vivo, po, 0.5 g/kg, Dried pulverized leaves oral, healthy rats (animals 3, 4), 24 h) was determined as 1 ng/mL.
As for `CC[C@@]12CC(C(=O)OC)=C3Nc4cc5c(cc4[C@@]34CCN(C[C@H]3O[C@H]31)[C@@H]24)[C@@H]1[C@H](O5)[C@@H](O)[C@@]2(CC)CC(C(=O)OC)=C3Nc4c(cc(O)c(OC)c4OC)[C@@]34CCN1[C@@H]24` [Conophylline, conophylline], in series [1] (Citrate buffer solution, pH 3), the “content dissolved in supernatant” value turned out to be 0.866 mg/mL. The “content dissolved in supernatant” value in series [1] (Citrate buffer solution, pH 4) was 0.093 mg/mL. The “content dissolved in supernatant” value in series [1] (Citrate buffer solution, pH 5) worked out at 0.0018 mg/mL. The “content dissolved in supernatant” value in series [1] (Citrate buffer solution, pH 6) is 0.0009 mg/mL. In series [1] (Citric acid, pH 2.6), the “content dissolved in supernatant” value came out at 1.072 mg/mL. Moreover, in series [2], the “amount in Aqueous extract” value was determined as 2.62 µg/mL, the “amount in Lysate” value came to 0.04 µg/mL, the “amount in Centrifuged supernatant” value is 2.22 µg/mL and the “amount in Centrifuged precipitate” value was 0.48 µg/mL. Further, in series [2], the “amount in UF filtrate” value came to 0.00 µg/mL and the “amount in UF debris” value worked out at 2.39 µg/mL. For the same compound, in the series with pancreatic β cells, the “regeneration of pancreatic β cells” value is reported as “activate regeneration of pancreatic β cells”. The “time at which blood concentration reached its maximum” value in series [3] (male, Crj:CD (SD) IGS, rat, in vivo, po) was 1.5 h.

The values are drawn from patent US8178135B2, “Aqueous solution of conophylline and/or conophyllidine” (Keio University, priority 2006, dated 2012).
